# Patent publication US20100331305A1, “OXO-HETEROCYCLE FUSED PYRIMIDINE COMPOUNDS, COMPOSITIONS AND METHODS OF USE” (Genentech, Inc., priority 2009, published 2010)
# pEC50, pKi: −log10 of the molar value. “And” between values parts separate entries of the source, which are not always exact repeats. Identical values can stand only once.
# What was measured:
# [1] = system: AKT serine-473 phosphorylation in PC-3 cells; test: In vitro phospho-AKT serine 473 cellular assay; assay type: cell-based; conditions: Homo sapiens; PC-3 cells stimulated with EGF; first nine specific compounds; read-out: EC50 activity level, inhibition of AKT serine-473 phosphorylation
# Description: b. In Vitro Phospho-AKT Serine 473 Cellular Assay
# The assay measures a test compound's inhibition of AKT serine-473 phosphorylation in human prostate adenocarcinoma derived PC-3 (ATCC CRL-1435) cells that have been stimulated with epidermal growth factor (EGF).
# The PC-3 cell line is maintained in RPMI1640 media supplemented with 10% FBS, 2 mM Glutamine, and 10 mM HEPES pH 7.4 at 37° C. in a 5% CO2 humidified incubator.
# Cells are seeded in 384-well plates at 7,000 cells/well in 50 μl growth media. After 24 hours, growth media is removed and replaced with RPMI1640 containing no FBS. Cells are treated with 10 concentrations of test compounds or DMSO alone for controls (final DMSO concentration 0.5%) and incubated at 37° C. for 30 minutes. Cells are then stimulated for 10 minutes with 100 ng/ml EGF (final concentration). One column of controls is not stimulated with EGF to observe the signal ratio between stimulated and non-stimulated cells. After 10 minutes, compounds and stimulation media are removed and replaced with 25 μl lysis buffer containing protease inhibitors and phosphatase inhibitors. This buffer contains detergent to bring about cellular disruption. […] Following the transfer of lysate to the MSD plate, AKT in the lysate is captured on the coated antibody by incubation on a shaker at 4° C. for 16 hours. Following the capture step the plate is washed and then incubated for two hours with an antibody to S473 phosphorylated AKT which is conjugated with a Sulfo-Tag. This tag gives a signal when in proximity to the electrode on the base of the MSD plate. Binding the tagged antibody to the captured protein allow detection on a MSD reader.
# EC50 values are calculated using MDL Assay Explorer 3.0.1.8 fitting a sigmoidal curve with a variable slope.
# PC3 cells = test: In vitro cell proliferation assay; assay type: cell-based, human; conditions: values tied to compounds by order of Table 1
# In short: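 PC3 (or MDAMB361.1) cells, ~10^3/well, settled overnight, then exposed to compound for 3 days; viability read by CellTiter-Glo luminescence (RLU). Alternatively, 4-day compound exposure followed by Alamar Blue for 6 h, fluorescence 544/590 nm; EC50 from sigmoidal dose-response fit.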
# [2] = target: mTOR enzyme (mTOR(1360-2549)+GBL) (Homo sapiens, UniProt P42345); test: In vitro mTOR kinase assay (TR-FRET); assay type: biochemical; conditions: 0.25 nM mTOR+GBL, 8 uM ATP; values tied to compounds by order of Table 1; 'x or y' = two alternative values for separated diastereomers of unassigned stereochemistry; read-out: activity level (Ki) in the mTOR kinase assay
# Sequence of mTOR enzyme (mTOR(1360-2549)+GBL) (P42345 1360-2549, species assumed): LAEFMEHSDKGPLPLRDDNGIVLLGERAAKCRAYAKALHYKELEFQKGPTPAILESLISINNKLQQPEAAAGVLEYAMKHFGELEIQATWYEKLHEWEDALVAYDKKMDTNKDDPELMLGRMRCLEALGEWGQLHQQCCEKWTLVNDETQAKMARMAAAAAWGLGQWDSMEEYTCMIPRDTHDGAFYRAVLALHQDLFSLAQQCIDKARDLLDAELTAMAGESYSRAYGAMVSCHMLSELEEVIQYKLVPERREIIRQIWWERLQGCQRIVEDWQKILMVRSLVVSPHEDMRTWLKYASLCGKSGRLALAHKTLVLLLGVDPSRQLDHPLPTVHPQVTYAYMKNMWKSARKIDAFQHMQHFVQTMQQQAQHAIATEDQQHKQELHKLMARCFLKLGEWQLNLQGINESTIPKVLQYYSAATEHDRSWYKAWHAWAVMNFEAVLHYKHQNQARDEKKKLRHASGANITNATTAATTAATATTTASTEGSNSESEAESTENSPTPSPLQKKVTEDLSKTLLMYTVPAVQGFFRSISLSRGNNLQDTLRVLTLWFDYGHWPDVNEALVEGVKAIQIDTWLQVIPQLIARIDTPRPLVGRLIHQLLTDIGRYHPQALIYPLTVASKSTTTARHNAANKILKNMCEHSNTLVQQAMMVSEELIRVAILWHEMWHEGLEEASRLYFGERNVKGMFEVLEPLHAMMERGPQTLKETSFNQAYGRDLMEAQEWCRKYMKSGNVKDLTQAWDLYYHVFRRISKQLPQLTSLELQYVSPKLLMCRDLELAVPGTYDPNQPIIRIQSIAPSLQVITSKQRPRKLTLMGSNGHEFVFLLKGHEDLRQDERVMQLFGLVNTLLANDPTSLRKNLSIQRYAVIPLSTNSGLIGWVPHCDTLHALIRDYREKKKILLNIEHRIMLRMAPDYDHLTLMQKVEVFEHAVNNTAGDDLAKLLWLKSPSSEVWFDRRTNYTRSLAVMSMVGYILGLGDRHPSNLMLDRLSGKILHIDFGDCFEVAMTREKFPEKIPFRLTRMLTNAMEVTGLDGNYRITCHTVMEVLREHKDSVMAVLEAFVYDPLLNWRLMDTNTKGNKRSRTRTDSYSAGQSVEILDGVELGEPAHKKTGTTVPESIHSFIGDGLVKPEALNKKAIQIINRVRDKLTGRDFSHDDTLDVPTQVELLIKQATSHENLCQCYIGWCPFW
# Sequence of mTOR enzyme (mTOR(1360-2549)+GBL) (Q9BVC4 whole entry partner, species assumed): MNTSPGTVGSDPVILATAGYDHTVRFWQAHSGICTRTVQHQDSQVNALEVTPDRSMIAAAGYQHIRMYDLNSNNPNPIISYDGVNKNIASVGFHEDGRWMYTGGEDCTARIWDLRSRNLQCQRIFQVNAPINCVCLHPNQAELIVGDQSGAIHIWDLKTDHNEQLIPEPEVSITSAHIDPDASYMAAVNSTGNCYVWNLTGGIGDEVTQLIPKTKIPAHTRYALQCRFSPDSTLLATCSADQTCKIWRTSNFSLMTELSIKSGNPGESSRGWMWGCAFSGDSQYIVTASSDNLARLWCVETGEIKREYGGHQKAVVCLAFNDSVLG
# In short: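 Compounds were tested in 10-point dose curves from 10 uM top final concentration. The reaction was stopped with 2 nM Tb-anti-p4E-BP1 (T37/T46) antibody plus 10 mM EDTA for 30 minutes, and phospho-4E-BP1 was detected by TR-FRET. Ki apparent was fitted with the Morrison ATP-competitive tight-binding equation.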
# [3] = Homo sapiens, PC-3, with PC3 cells
SMILES,pEC50 [1],pEC50 (PC3 cells; with PC3 cells),pKi [2],pEC50 (PC3 cells; [3])
"CCNC(=O)Nc1ccc(-c2nc3c(c(N4CCOCC4)n2)COCC3)cc1 [Example 18, 1-ethyl-3-(4-(4-morpholino-7,8-dihydro-5H-pyrano[4,3-d]pyrimidin-2-yl)phenyl)urea]",6.63,,,
"CCNC(=O)Nc1ccc(-c2nc(N3CCOC[C@@H]3C)c3c(n2)[C@@](C)(CCN(C)CC)OC3)cc1 [Example 78 eq (R), 1-ethyl-3-(4-((R)-7-(2-(ethyl(methyl)amino)ethyl)-7-methyl-4-((S)-3-methylmorpholino)-5,7-dihydrofuro[3,4-d]pyrimidin-2-yl)phenyl)urea]",,6.79,7.33,
"CCNC(=O)Nc1ccc(-c2nc(N3CCOC[C@@H]3C)c3c(n2)[C@](C)(CCN(C)CC)OC3)cc1 [Example 78 eq (S), 1-ethyl-3-(4-((S)-7-(2-(ethyl(methyl)amino)ethyl)-7-methyl-4-((S)-3-methylmorpholino)-5,7-dihydrofuro[3,4-d]pyrimidin-2-yl)phenyl)urea]",,5.89,7.68,
"CCNC(=O)Nc1ccc(-c2nc(N3CCOC[C@@H]3C)c3c(n2)[C@](C)(CCN2CCC2)OC3)cc1 [Example 79 er (S), 1-(4-((S)-7-(2-(azetidin-1-yl)ethyl)-7-methyl-4-((S)-3-methylmorpholino)-5,7-dihydrofuro[3,4-d]pyrimidin-2-yl)phenyl)-3-ethylurea]",,,7.51,6.11
"CCNC(=O)Nc1ccc(-c2nc(N3CCOC[C@@H]3C)c3c(n2)[C@@](C)(CCn2ccnc2C)OC3)cc1 [Example 81 et (R), 1-ethyl-3-(4-((R)-7-methyl-7-(2-(2-methyl-1H-imidazol-1-yl)ethyl)-4-((S)-3-methylmorpholino)-5,7-dihydrofuro[3,4-d]pyrimidin-2-yl)phenyl)urea]",,,7.17,6.56
"CCCC1(C)OCc2c(N3CCOC[C@@H]3C)nc(-c3ccc(NC(=O)NCC)cc3)nc21 (stereo partly drawn) [Example 83, 1-ethyl-3-(4-(7-methyl-4-((S)-3-methylmorpholino)-7-propyl-5,7-dihydrofuro[3,4-d]pyrimidin-2-yl)phenyl)urea]",,,8.70,7.08
C=CC[C@@]1(C)OCc2c(N3CCOC[C@@H]3C)nc(-c3ccc(NC(=O)NCC)cc3)nc21 [Example 85 ek^2],,,8.70,7.18
"CCNC(=O)Nc1ccc(-c2nc3c(c(N4CCOC[C@@H]4C)n2)COC3)cc1 [Example 96, (S)-1-ethyl-3-(4-(4-(3-methylmorpholino)-5,7-dihydrofuro[3,4-d]pyrimidin-2-yl)phenyl)urea]",,,8.05,7.55
"CCNC(=O)Nc1ccc(-c2nc3c(c(N4[C@@H]5CC[C@H]4COC5)n2)COC3)cc1 [Example 98, 1-(4-(4-((1R,5S)-3-oxa-8-azabicyclo[3.2.1]octan-8-yl)-5,7-dihydrofuro[3,4-d]pyrimidin-2-yl)phenyl)-3-ethylurea]",,,8.10,6.48
"CC1(C)OCc2c(N3CCOCC3)nc(-c3ccc(N)nc3)nc21 [Example 102, 5-(7,7-dimethyl-4-morpholino-5,7-dihydrofuro[3,4-d]pyrimidin-2-yl)pyridin-2-amine]",,,7.77,6.80
"C[C@H]1COCCN1c1nc(-c2cnc(N)nc2)nc2c1COC2(C)C [Example 103, (S)-5-(7,7-dimethyl-4-(3-methylmorpholino)-5,7-dihydrofuro[3,4-d]pyrimidin-2-yl)pyrimidin-2-amine]",,,7.82,7.39
"C[C@H]1COCCN1c1nc(-c2cnc(N)nc2)nc2c1CO[C@@]2(C)CCOc1ccccc1 [Example 104 gs (S), 5-((S)-7-methyl-4-((S)-3-methylmorpholino)-7-(2-phenoxyethyl)-5,7-dihydrofuro[3,4-d]pyrimidin-2-yl)pyrimidin-2-amine]",,,6.64,6.84
"CC1(C)OCc2c(N3C[C@H]4C[C@@H]3CO4)nc(-c3cnc(N)nc3)nc21 [Example 105, 5-(4-((1R,4R)-2-oxa-5-azabicyclo[2.2.1]heptan-5-yl)-7,7-dimethyl-5,7-dihydrofuro[3,4-d]pyrimidin-2-yl)pyrimidin-2-amine]",,,7.06,7.77
"CC1(C)OCc2c(N3C[C@H]4CC[C@@H](C3)O4)nc(-c3cnc(N)nc3)nc21 [Example 107, 5-(4-((1R,5S)-8-oxa-3-azabicyclo[3.2.1]octan-3-yl)-7,7-dimethyl-5,7-dihydrofuro[3,4-d]pyrimidin-2-yl)pyrimidin-2-amine]",,,8.00,6.64
COCC[C@]1(C)OCc2c(N3CCOC[C@@H]3C)nc(-c3ccc4nc(N)oc4c3)nc21 [Example 112 hg^1],,,6.59 and 6.39,6.17
"CC1(C)OCc2c(N3CCOCC3)nc(-c3ccc4oc(N)nc4c3)nc21 [Example 114, 5-(7,7-dimethyl-4-morpholino-5,7-dihydrofuro[3,4-d]pyrimidin-2-yl)benzo[d]oxazol-2-amine]",,,6.91,5.60
"CC1(C)OCc2c(N3CCOCC3)nc(-c3ccc4nc(N)oc4c3)nc21 [Example 115, 6-(7,7-dimethyl-4-morpholino-5,7-dihydrofuro[3,4-d]pyrimidin-2-yl)benzo[d]oxazol-2-amine]",,,6.57,6.84
"CC1(C)OCc2c(N3CCOCC3)nc(-c3ccc4c(N)noc4c3)nc21 [Example 116, 6-(7,7-dimethyl-4-morpholino-5,7-dihydrofuro[3,4-d]pyrimidin-2-yl)benzo[d]isoxazol-3-amine]",,,7.77,5.68
"CC1(C)OCc2c(N3CCOCC3)nc(-c3ccc4onc(N)c4c3)nc21 [Example 117, 5-(7,7-dimethyl-4-morpholino-5,7-dihydrofuro[3,4-d]pyrimidin-2-yl)benzo[d]isoxazol-3-amine]",,,6.25,5.92
COCC[C@]1(C)OCc2c(N3CCOC[C@@H]3C)nc(-c3ccc4onc(N)c4c3)nc21 [Example 119 hq^1],,,5.37 and 5.82,6.69
"C[C@H]1COCCN1c1nc(-c2ccc3c(N)noc3c2)nc2c1COC2(C)C [Example 120, (S)-6-(7,7-dimethyl-4-(3-methylmorpholino)-5,7-dihydrofuro[3,4-d]pyrimidin-2-yl)benzo[d]isoxazol-3-amine]",,,7.62,7.41
"C[C@H]1COCCN1c1nc(-c2ccc3onc(N)c3c2)nc2c1COC2(C)C [Example 121, (S)-5-(7,7-dimethyl-4-(3-methylmorpholino)-5,7-dihydrofuro[3,4-d]pyrimidin-2-yl)benzo[d]isoxazol-3-amine]",,,6.41,5.89
"C[C@H]1COCCN1c1nc(-c2ccc3oc(N)nc3c2)nc2c1COC2(C)C [Example 123, (S)-5-(7,7-dimethyl-4-(3-methylmorpholino)-5,7-dihydrofuro[3,4-d]pyrimidin-2-yl)benzo[d]oxazol-2-amine]",,,7.37,6.52
COCC[C@]1(C)OCc2c(N3CCOC[C@@H]3C)nc(-c3ccc4nc(N)[nH]c4c3)nc21 [Example 124 hv^1],,,7.62 and 7.09,6.24
"CNc1nc2cc(-c3nc(N4CCOC[C@@H]4C)c4c(n3)C(C)(C)OC4)ccc2[nH]1 [Example 125, (S)-5-(7,7-dimethyl-4-(3-methylmorpholino)-5,7-dihydrofuro[3,4-d]pyrimidin-2-yl)-N-methyl-1H-benzo[d]imidazol-2-amine]",,,8.00,6.25
"CC[C@H]1COCCN1c1nc(-c2cnc(N)nc2)nc2c1CCCO2 [Example 128, (S)-5-(4-(3-ethylmorpholino)-6,7-dihydro-5H-pyrano[2,3-d]pyrimidin-2-yl)pyrimidin-2-amine]",,,6.99,5.92
"Nc1ccc(-c2nc3c(c(N4C[C@H]5CC[C@@H](C4)O5)n2)CCCO3)cn1 [Example 130, 5-(4-((1R,5S)-8-oxa-3-azabicyclo[3.2.1]octan-3-yl)-6,7-dihydro-5H-pyrano[2,3-d]pyrimidin-2-yl)pyridin-2-amine]",,,7.52,6.13
"Nc1ccc(-c2nc3c(c(N4[C@@H]5CC[C@H]4COC5)n2)CCCO3)cn1 [Example 132, 5-(4-((1R,5S)-3-oxa-8-azabicyclo[3.2.1]octan-8-yl)-6,7-dihydro-5H-pyrano[2,3-d]pyrimidin-2-yl)pyridin-2-amine]",,,7.49,6.23
